Test results published in BindingDB's records for patent US12466809 (Dana-Farber Cancer Institute, 2025).

Target: Cyclin-A2/Cyclin-dependent kinase 2 (Homo sapiens, UniProt P24941)
Test: Biochemical Assay
Excerpt: CDK2 and CDK5 IC50 data were attained through the use of Invitrogen™ commercial assays. The method for CDK2 (assay ID: 315, kinase|Z'-LYTE™|CDK2/Cyclin A|Km app) used a 10-point titration. The method for CDK5 (assay ID: 318, kinase|Z'-LYTE™|CDK5/p25|Km app) used a 10-point titration. All the bifunctional compounds showed potent biochemical inhibition on both CDK2/5 enzymes.

SMILES	IC50 [nM]
NC(=O)c1c(F)cccc1Nc1nc(NC2CCN(S(=O)(=O)CCNC(=O)CCCCCCCCCCc3cccc4c3CN(C3CCC(=O)NC3=O)C4=O)CC2)ncc1Br (stereo unspecified) [US12466809, Compound 15]	50
NC(=O)c1c(F)cccc1Nc1nc(NC2CCN(S(=O)(=O)CCNC(=O)CCCCCCCCC#Cc3cccc4c3CN(C3CCC(=O)NC3=O)C4=O)CC2)ncc1Br (stereo unspecified) [US12466809, Compound 14]	57.2
O=C(CCCCCCCCC#Cc1cccc2c1CN(C1CCC(=O)NC1=O)C2=O)NCCS(=O)(=O)N1CCC(Nc2ncc(Br)c(Nc3cccc4c3OCO4)n2)CC1 (stereo unspecified) [US12466809, Compound 16]	> 370

These reach a lower IC50. Values come first.

IC50 [nM]	SMILES
6.8	Cc1ncsc1-c1ccc([C@H](C)NC(=O)[C@@H]2C[C@@H](O)CN2C(=O)[C@@H](NC(=O)CCOCCOCCC(=O)NCCS(=O)(=O)N2CCC(Nc3ncc(Br)c(Nc4cccc(F)c4C(N)=O)n3)CC2)C(C)(C)C)cc1 [US12466809, Compound 11]
3.8	NC(=O)c1c(F)cccc1Nc1nc(NC2CCN(S(=O)(=O)CCNC(=O)CCC(=O)NCCCCCNc3cccc4c3C(=O)N(C3CCC(=O)NC3=O)C4=O)CC2)ncc1Br (stereo unspecified) [US12466809, Compound 13]
5.3	Cc1ncsc1-c1ccc([C@H](C)NC(=O)[C@@H]2C[C@@H](O)CN2C(=O)[C@@H](NC(=O)CCC(=O)NCCS(=O)(=O)N2CCC(Nc3ncc(Br)c(Nc4cccc(F)c4C(N)=O)n3)CC2)C(C)(C)C)cc1 [US12466809, Compound 12]
